Measured values reported in US20150181873A1, “HERBICIDE-RESISTANT SUNFLOWER PLANTS, POLYNUCLEOTIDES ENCODING HERBICIDE=RESISTANT ACETO HYDROXY ACID SYNTHASE LARGE SUBUNIT PROTEINS, AND METHODS OF USE” (NIDERA S.A., priority 2013, published 2015).

Columns and labels:
[1] = tested on: Sunflower line S4897; assay: Greenhouse spray injury rating, line S4897; assay type: in vivo, Helianthus annuus
From the text: (§1) Sunflower lines S4897, Clearfield® sunflower varieties A, B, C and a conventional non-Clearfield variety were sprayed with three rates of imazamox (Raptor™), 100, 200 and 300 gm ai/ha plus 0.5% Sun It II and two rates of imazapyr (Arsenal™) 160 and 360 gm ai/ha plus 0.5% Sun It II when the plants were at the two to three leaf stage. Ratings were taken at 14 days after application (DAT) for injury. Injury was rated on a scale from 0 to 9 where 0=no injury to 9=dead plant. Twelve plants were sprayed per herbicide/rate treatment. Statistical analysis was conducted with STATGRAPHICS Plus 5.0 by using ANOVA and LSD procedures.
(§2) After plants were sprayed, it was realized that a height difference between S4897 and other sunflower varieties would have impacted the actual herbicide dose that was delivered. The spray boom height had been calibrated against S4897 and since the other varieties were taller and closer to the boom they would have received a greater dose of herbicide. Rates were recalibrated for the other varieties to determine the approximate dose they would have received. Assessments were made as presented in Table 2 since it was not possible to make a direct rate comparison due to the effect of the height. For example injury scores were compare for S4897 treated imazamox rate 100 gm ai/ha to the other varieties treated at 75 gm ai/ha. The treatment dose of 300 gm ai/ha for line S4897 was equivalent to the treatment of 200 gm ai/ha for the other varieties, which […].

[2] = tested on: S4897 sunflower plants; assay: Greenhouse imazamox spray test (FIG. 3/4), S4897; assay type: in vivo, Helianthus annuus; settings: S4897 vs IMISUN-1 and wild-type; imazamox 100 and 200 g ai/ha; 17 days after application
Experimental: (§3) The S4897 and IMISUN-1 sunflower plants were spray-treated with imazamox at rate of 200 g ai/ha. […] The photograph was taken a few days after the plants were spray treated.
(§4) FIG. 4 is graphical illustration of herbicide injury in a greenhouse test following the spray treatment of IMISUN-1, wild-type, and S4897 sunflower plants with imazamox at either 100 (light columns) or 200 g ai/ha (dark columns). […] Herbicide injury was evaluated 17 days after the imazamox application.

[3] = tested on: Clearfield sunflower variety B; assay: Greenhouse spray injury rating, Clearfield variety B; assay type: in vivo, Helianthus annuus; settings: scale 0-9
From the text: as §1, §2

[4] = tested on: Clearfield sunflower variety A; assay: Greenhouse spray injury rating, Clearfield variety A; assay type: in vivo, Helianthus annuus
From the text: as §1, §2

[5] = tested on: wild-type sunflower plants; assay: Greenhouse imazamox spray test (FIG. 3/4), wild-type; assay type: in vivo, Helianthus annuus; settings: imazamox 100 or 200 g ai/ha
Experimental: as §3, §4

[6] = tested on: Conventional non-Clearfield sunflower variety; assay: Greenhouse spray injury rating, conventional variety; assay type: in vivo, Helianthus annuus; settings: scale 0-9
From the text: as §1, §2

[7] = tested on: Clearfield sunflower variety C; assay: Greenhouse spray injury rating, Clearfield variety C; assay type: in vivo, Helianthus annuus; settings: scale 0-9
From the text: as §1, §2

[8] = tested on: AHAS of S4897 sunflower (Ala107-to-Thr AHASL1); assay: AHAS activity analysis of young leaves; assay type: biochemical, Helianthus annuus; settings: S4897 vs Clearfield and conventional non-Clearfield variety; higher concentration of imazamox (FIG. 7)
Experimental: FIG. 7 is graphical illustration of a comparison of the inhibition of AHAS by Raptor for a non-Clearfield variety, a Clearfield variety and S4897 sunflower plants as described in Example 5.
FIG. 8 is graphical illustration of a comparison of the inhibition of AHAS by Glean for a non-Clearfield variety, a Clearfield variety and S4897 sunflower plants as described in Example 5.
AHAS activity analysis was also conducted by selecting actively growing young leaves from plants that were not sprayed with herbicide at approximately four weeks after planting.

[9] = tested on: S4897 plants; assay: Field trial of resistance to imazapic; assay type: in vivo, Helianthus annuus; settings: S4897 vs IMISUN-1 (Ala190-to-Val); field trials in Argentina; no data presented
Experimental: In field trials in Argentina, S4897 plants were tested for resistance to imazapic. […] This trial had single row plots and was treated on a windy day, so the actual herbicide dose reaching the plants was likely less than was applied.

[10] = imazamox 300 gm ai/ha, scale 0-9

COCc1cnc(C2=NC(C)(C(C)C)C(=O)N2)c(C(=O)O)c1 (stereo not shown) [Imazamox, imazamox]
Injury at 14 DAT ([1]; imazamox 100 gm ai/ha (100/75), scale 0=no injury to 9=dead plant): 0.5 a
Injury at 14 DAT ([1]; imazamox 200 gm ai/ha (column 200/150), scale 0-9): 0.8 a
Injury at 14 DAT ([1]; imazamox 200 gm ai/ha (column 200/150), scale 0-9, listed as imazamox): little to no injury
Injury at 14 DAT [1, 10]: 0.8 a
Injury at 14 DAT ([1]; imazamox 300 gm ai/ha, scale 0-9, listed as imazamox): very little injury
herbicide injury / resistance or tolerance [2]: significantly greater resistance or tolerance
Injury at 14 DAT ([3]; imazamox 75 gm ai/ha (100/75)): 1.9 b
Injury at 14 DAT ([3]; imazamox 150 gm ai/ha): 4.8 c
Injury at 14 DAT ([3]; imazamox 300 gm ai/ha): 5.3 c
Injury at 14 DAT ([4]; imazamox 75 gm ai/ha (100/75), scale 0-9): 4.3 c
Injury at 14 DAT ([4]; imazamox 150 gm ai/ha (column 200/150), scale 0-9): 4.6 c
Injury at 14 DAT ([4]; imazamox 150 gm ai/ha (column 200/150), scale 0-9, listed as imazamox): significantly in juried and had stopped growing
Injury at 14 DAT [4, 10]: 6.5 days
survival following spray treatment [5]: did not survive
Injury at 14 DAT ([6]; imazamox 75 gm ai/ha (100/75)): 7.2 days
Injury at 14 DAT ([6]; imazamox 150 gm ai/ha): 8.2 days
Injury at 14 DAT ([6]; imazamox 300 gm ai/ha): 8.7 e
Injury at 14 DAT ([7]; imazamox 75 gm ai/ha (100/75)): 1.8 b
Injury at 14 DAT ([7]; imazamox 150 gm ai/ha): 2.9 b
Injury at 14 DAT ([7]; imazamox 300 gm ai/ha): 4.6 b
inhibition of AHAS activity [8]: less inhibition

Cc1cnc(C2=NC(=O)C(C)(C(C)C)N2)c(C(=O)O)c1 (stereo not shown) [imazapic]
resistance to imazapic [9]: clearly superior
